From patent publication US20220056019A1, “FARNESOID X RECEPTOR AGONISTS AND USES THEREOF” (Metacrine, Inc., priority 2018, published 2022)

Each compound was assayed against T1, hFXR (Homo sapiens, UniProt Q96RI1) (assay: In Vitro FXR Assay (TK): TK-ECRE-luc reporter in transfected CV-1 cells). Conditions: 18 hrs incubation, luminescence.
T1 construct: expressed in transfected cells; host or cells: CV-1 cells
T1 sequence (Q96RI1 1-486): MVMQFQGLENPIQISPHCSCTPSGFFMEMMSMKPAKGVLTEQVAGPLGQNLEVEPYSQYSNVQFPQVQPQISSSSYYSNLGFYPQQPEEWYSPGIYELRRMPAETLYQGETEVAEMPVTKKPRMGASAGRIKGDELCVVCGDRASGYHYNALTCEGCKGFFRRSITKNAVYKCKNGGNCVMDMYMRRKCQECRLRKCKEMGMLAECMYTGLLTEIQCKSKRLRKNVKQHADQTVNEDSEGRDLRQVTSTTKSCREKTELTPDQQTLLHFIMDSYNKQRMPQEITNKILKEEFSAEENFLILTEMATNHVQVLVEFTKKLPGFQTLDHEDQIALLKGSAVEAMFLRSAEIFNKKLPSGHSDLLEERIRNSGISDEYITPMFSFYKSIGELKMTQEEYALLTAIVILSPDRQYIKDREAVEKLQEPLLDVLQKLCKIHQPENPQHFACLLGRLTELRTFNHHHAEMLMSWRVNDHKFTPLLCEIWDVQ
T1 sequence (P19793 1-462 partner): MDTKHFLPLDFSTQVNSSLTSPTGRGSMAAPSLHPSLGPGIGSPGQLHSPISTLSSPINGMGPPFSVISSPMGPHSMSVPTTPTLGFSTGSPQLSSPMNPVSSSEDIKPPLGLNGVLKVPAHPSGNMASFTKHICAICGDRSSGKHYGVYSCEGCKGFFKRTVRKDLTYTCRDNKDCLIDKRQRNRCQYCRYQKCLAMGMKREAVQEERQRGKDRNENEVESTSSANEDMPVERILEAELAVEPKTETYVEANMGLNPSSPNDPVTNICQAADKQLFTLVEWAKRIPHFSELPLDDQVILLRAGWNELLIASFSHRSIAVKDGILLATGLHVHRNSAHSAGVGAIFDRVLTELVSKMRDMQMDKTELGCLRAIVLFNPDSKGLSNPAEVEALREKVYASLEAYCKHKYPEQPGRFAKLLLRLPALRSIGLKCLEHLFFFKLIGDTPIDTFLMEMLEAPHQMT
Type: cell-based
Outline: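 First, CV-1 cells were grown overnight in stripped-serum DMEM, then transfected for 18 h with expression plasmids for human FXR and RXR plus a TK-ECRE luciferase reporter and YFP. Next, serially diluted compounds were applied for 18 h, and lysates were read by luminescence.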
For COc1ccc([C@H]2CC[C@H](CN(c3cc(-c4coc(C(C)C)n4)ccn3)C(=O)[C@H]3CC[C@H](OC(=O)NC(C)C)CC3)CC2)cc1C [Compound 2.44, trans-4-((4-(2-Isopropyloxazol-4-yl)pyridin-2-yl)(((trans)-4-(4-methoxy-3-methylphenyl)cyclohexyl)methyl)carbamoyl) cyclohexyl isopropylcarbamate], the EC50 was at most 0.05 µM.
COc1ccc(C23CCC(CN(c4cc(-n5cnc(C(C)C)n5)ccn4)C(=O)[C@H]4CC[C@H](OC(=O)N5CC(O)C5)CC4)(CC2)CC3)cc1C [Compound 4.18, 4-((4-(3-Isopropyl-1H-1,2,4-triazol-1-yl)pyridin-2-yl)((4-(4-methoxy-3-methylphenyl)bicyclo [2.2.2]octan-1-yl)methyl)carbamoyl)cyclohexyl 3-hydroxyazetidine-trans-1-carboxylate] showed an EC50 of at most 0.05 µM.
Compound COc1ccc(C23CCC(CN(c4cc(-c5cnn(C6(C)CCC6)c5)ccn4)C(=O)[C@H]4CC[C@H](OC(=O)NCCCO)CC4)(CC2)CC3)cc1C [Compound 25.17, 4-(((4-(4-Methoxy-3-methylphenyl)bicyclo[2.2.2]octan-1-yl)methyl)(4-(1-(1-methylcyclobutyl)-1H-pyrazol-4-yl)pyridin-2-yl)carbamoyl)(trans-cyclohexyl)(3-hydroxypropyl)carbamate] has an EC50 of at most 0.05 µM.
COc1ccc(C23CCC(CN(C(=O)N4CCC(OC(=O)N5CC(O)C5)CC4)c4cc(-c5cnn(C(C)C)c5)ccn4)(CC2)CC3)cc1C [Compound 27, 1-((4-(1-Isopropyl-1H-pyrazol-4-yl)pyridin-2-yl)((4-(4-methoxy-3-methylphenyl)bicyclo[2.2.2]octan-1-yl)methyl)carbamoyl)piperidin-4-yl 3-hydroxyazetidine-1-carboxylate] was tested, and the EC50 was at most 0.05 µM.
COc1c(C)cc(C23CCC(CN(c4cc(-c5cnn(C(C)C)c5)ccn4)C(=O)[C@H]4CC[C@H](OC(=O)N5CC(O)C5)CC4)(CC2)CC3)cc1C [Compound 26.07, 4-((4-(1-Isopropyl-1H-pyrazol-4-yl)pyridin-2-yl)((4-(4-methoxy-3,5-dimethylphenyl)bicyclo[2.2.2]octan-1-yl)methyl)carbamoyl)cyclohexyl trans-3-hydroxyazetidine-1-carboxylate] showed an EC50 of at most 0.05 µM.
COc1ccc(C23CCC(CN(c4cc(-c5cnn(C(C)C)c5)ncn4)C(=O)[C@H]4CC[C@H](OC(=O)N5CC(O)C5)CC4)(CC2)CC3)cc1C [Compound 23, 4-((6-(1-Isopropyl-1H-pyrazol-4-yl)pyrimidin-4-yl)((4-(4-methoxy-3-methylphenyl)bicyclo[2.2.2]octan-1-yl)methyl)carbamoyl)(trans-cyclohexyl) 3-hydroxyazetidine-1-carboxylate] showed an EC50 of at most 0.05 µM.
COc1ccc([C@H]2CC[C@H](CN(c3cc(-c4cnn(C(C)C)c4)ccn3)C(=O)[C@H]3CC[C@H](OC(=O)NCCCF)CC3)CC2)cc1C [Compound 2.29, trans-4-((4-(1-Isopropyl-1H-pyrazol-4-yl)pyridin-2-yl)(((trans)-4-(4-methoxy-3-methylphenyl)cyclohexyl)methyl)carbamoyl) cyclohexyl(3-fluoropropyl)carbamate] was tested, and the EC50 was at most 0.05 µM.
Compound COc1ccc([C@H]2CC[C@H](CN(c3cc(-c4cnn(C(F)(F)F)c4)ccn3)C(=O)[C@H]3CC[C@H](OC(=O)N4CC(O)C4)CC3)CC2)cc1C [Compound 2.57, trans-4-((((trans)-4-(4-Methoxy-3-methylphenyl)cyclohexyl)methyl) (4-(1-(trifluoromethyl)-1H-pyrazol-4-yl)pyridin-2-yl)carbamoyl)cyclohexyl 3-hydroxyazetidine-1-carboxylate] has an EC50 of at most 0.05 µM.
COc1ccc(C23CCC(CN(c4cc(C5CCN(C(C)C)C5)ccn4)C(=O)[C@H]4CC[C@H](OC(=O)N5CC(O)C5)CC4)(CC2)CC3)cc1C (stereo partly drawn) [Compound 23.18, 4-((4-(1-(Isopropylpyrrrolidin-3-yl)pyridin-2-yl)((4-(4-methoxy-3-methylphenyl)bicyclo[2.2.2]octan-1-yl)methyl)carbamoyl)cyclo-hexyl trans-3-hydroxyazetidine-1-carboxylate] showed an EC50 of 0.05 to 1 µM.
CS(=O)(=O)c1ccc([C@H]2CC[C@H](CN(c3cccc(-c4cnc(C5CC5)s4)c3)C(=O)[C@H]3CC[C@H](OC(=O)N4CC(O)C4)CC3)CC2)cc1 [Compound 5.15, trans-4-((3-(2-Cyclopropylthiazol-5-yl)phenyl)((trans-4-(4-(methylsulfonyl)phenyl)cyclohexyl)methyl)carbamoyl)cyclohexyl 3-hydroxyazetidine-1-carboxylate] was tested, and the EC50 was 0.05 to 1 µM.
With COc1ccc([C@H]2CC[C@H](CN(c3cc(-c4cnc(C5CC5)s4)ccn3)C(=O)[C@H]3CC[C@H](OC(=O)NC4COC4)CC3)CC2)cc1C [Compound 2.54, trans-4-((4-(2-Cyclopropylthiazol-5-yl)pyridin-2-yl)(((trans)-4-(4-methoxy-3-methylphenyl)cyclohexyl)methyl)carbamoyl)cyclohexyl oxetan-3-ylcarbamate] the EC50 was at most 0.05 µM.
Work on COc1ccc([C@H]2CC[C@H](CN(c3cccc(-c4cnn(C(C)C)c4)c3)C(=O)[C@H]3CC[C@H](OC(=O)N4CCN(C)CC4)CC3)CC2)cc1C#N [Compound 5.08, trans-4-((((trans)-4-(3-Cyano-4-methoxyphenyl)cyclohexyl)methyl)(3-(1-isopropyl-1H-pyrazol-4-yl)phenyl)carbamoyl)cyclohexyl4-methylpiperazine-1-carboxylate] yielded an EC50 of at most 0.05 µM.
COc1ccc(C23CCC(CN(c4cc(-c5cnn(C6CCC6)c5)ncn4)C(=O)[C@H]4CC[C@H](OC(=O)N5CC(O)C5)CC4)(CC2)CC3)cc1C [Compound 23.23, 4-((6-(1-Cyclobutyl-1H-pyrazol-4-yl)pyrimidin-4-yl)((4-(4-methoxy-3-methylphenyl)bicyclo[2.2.2]octan-1-yl)methyl)carbamoyl)(trans-cyclohexyl) 3-hydroxyazetidine-1-carboxylate] was tested, and the EC50 was at most 0.05 µM.
COc1ccc(C23CCC(CN(c4ccc(Cl)c(-c5cnn(C(C)C)c5)c4)C(=O)[C@H]4CC[C@H](OC(=O)N5CC(O)C5)CC4)(CC2)CC3)cc1C [Compound 26.04, 4-((4-Chloro-3-(1-isopropyl-1H-pyrazol-4-yl)phenyl)((4-(4-methoxy-3-methylphenyl)bicyclo[2.2.2]octan-1-yl)methyl)carbamoyl)(trans-cyclohexyl) 3-hydroxyazetidine-1-carboxylate] showed an EC50 of at most 0.05 µM.
COc1ccc(C23CCC(CN(c4cc(-c5cnn(C(C)C)c5)ccn4)C(=O)[C@H]4CC[C@H](NC(=O)OC(C)C)CC4)(CC2)CC3)cc1C [Compound 8.02, (trans)-Isopropyl (4-((4-(1-isopropyl-1H-pyrazol-4-yl)pyridin-2-yl)((4-(4-methoxy-3-methylphenyl)bicyclo[2.2.2]octan-1-yl)methyl)carbamoyl)cyclohexyl)car-bamate] was tested, and the EC50 was at most 0.05 µM.
Work on COc1ccc(C23CCC(CN(c4cc(-c5cnc(C6CC6)o5)ccn4)C(=O)[C@H]4CC[C@H](OC(=O)N5CC(O)C5)CC4)(CC2)CC3)cc1C [Compound 4.24, 4-((4-(2-Cyclopropyloxazol-5-yl)pyridin-2-yl)((4-(4-methoxy-3-methylphenyl)bicyclo [2.2.2]octan-1-yl)methyl)carbamoyl) cyclohexyl 3-hydroxyazetidine-trans-1-carboxylate] yielded an EC50 of at most 0.05 µM.
Work on COc1ccc(C23CCC(CN(c4ccnc(-c5cnn(C6(C)CCC6)c5)c4)C(=O)[C@H]4CC[C@H](OC(=O)N5CC(O)C5)CC4)(CC2)CC3)cc1C [Compound 25.23, 4-(((4-(4-Methoxy-3-methylphenyl)bicyclo[2.2.2]octan-1-yl)methyl)(2-(1-(1-methylcyclobutyl)-1H-pyrazol-4-yl)pyridin-4-yl)carbamoyl)cyclohexyl trans-3-hydroxyazetidine-1-carboxylate] yielded an EC50 of at most 0.05 µM.
COc1ccc([C@H]2CC[C@H](CN(c3cccc(-c4cnn(C(C)C)c4)c3)C(=O)[C@H]3CC[C@H](NC(=O)COCCO)CC3)CC2)cc1C [Compound 13.01, trans-4-(2-(2-Hydroxyethoxy)acetamido)-N-(3-(1-isopropyl-1H-pyrazol-4-yl)phenyl)-N-((trans-4-(4-methoxy-3-methylphenyl)cyclohexyl)meth-yl)cyclohexanecarboxamide] was tested, and the EC50 was 0.05 to 1 µM.
For CCOC1CN(C(=O)O[C@H]2CC[C@H](C(=O)N(CC34CCC(c5ccc(OC)c(C)c5)(CC3)CC4)c3cc(-c4cnn(C(C)C)c4)ccn3)CC2)C1 [Compound 4.48, 4-((4-(1-Isopropyl-1H-pyrazol-4-yl)pyridin-2-yl) ((4-(4-methoxy-3-methylphenyl)bicyclo [2.2.2]octan-1-yl)methyl)carbamoyl)(trans-cyclohexyl) 3-ethoxyazetidine-1-carboxylate], the EC50 was at most 0.05 µM.
